Assay results from ChEMBL document CHEMBL4765387, “Design of G-protein-coupled bile acid receptor 1 (GPBAR1, TGR5) soft drugs with reduced gallbladder-filling effects” (Eur J Med Chem, 2020).
Each block holds one molecule with its values, some of them ahead of it.

What was measured:
[1] = Stability of the compound in mouse plasma assessed as parent compound remaining at 1 uM measured after 5 mins; assay type: ADME, cell-free; conditions: read-out: Stabilty
[2] = Cmax in overnight-fasted ICR mouse systemic circulation at 50 mg/kg, po measured after 1 hr by LC-MS/MS analysis; assay type: ADME, organism-based; design: route oral, time 1 hrs, dose 50 mg/kg
[3] = Cmax in overnight-fasted ICR mouse systemic circulation assessed as 5-[3-(4-Cyclopropyl-3,4-dihydro-2H-quinoxaline-1-carbonyl)-pyridin-4-yloxy]-benzofuran-3-carboxylic acid at 50 mg/kg, po measured after 1 hr by LC-MS/MS analysis; assay type: ADME, organism-based; design: route oral, dose 50 mg/kg, time 1 hrs; conditions: in vivo
[4] = Cmax in overnight-fasted ICR mouse gallbladder tissue assessed as 5-[3-(4-Cyclopropyl-3,4-dihydro-2H-quinoxaline-1-carbonyl)-pyridin-4-yloxy]-benzofuran-3-carboxylic acid at 50 mg/kg, po measured after 1 hr by LC-MS/MS analysis; assay type: ADME, organism-based, Gall bladder; design: route oral, time 1 hrs, dose 50 mg/kg; conditions: in vivo
[5] = Cmax in overnight-fasted ICR mouse bile assessed as 5-[3-(4-Cyclopropyl-3,4-dihydro-2H-quinoxaline-1-carbonyl)-pyridin-4-yloxy]-benzofuran-3-carboxylic acid at 50 mg/kg, po measured after 1 hr by LC-MS/MS analysis; assay type: ADME, organism-based; design: route oral, time 1 hrs, dose 50 mg/kg; conditions: in vivo
[6] = Peak drug concentration in overnight-fasted ICR mouse ileum at 50 mg/kg, po measured after 2 hr by LC-MS/MS analysis; assay type: ADME, organism-based; design: route oral, dose 50 mg/kg, time 2 hrs
[7] = Peak drug concentration in overnight-fasted ICR mouse colon at 50 mg/kg, po measured after 4 hr by LC-MS/MS analysis; assay type: ADME, organism-based; design: route oral, time 4 hrs, dose 50 mg/kg

Compound: CCOC(=O)c1coc2ccc(Oc3ccncc3C(=O)N3CCN(C4CC4)c4ccccc43)cc12
remaining at 5 min, 1 µM [1]: 38.5%

Compound: CCOCOC(=O)c1coc2ccc(Oc3ccncc3C(=O)N3CCN(C4CC4)c4ccccc43)cc12
Cmax [2]: 3 ng/mL
Cmax [3]: 80 ng/mL
Cmax [4]: 80 ng/mL
Cmax [5]: 80 ng/mL
Cmax [6]: 10200 ng/g
Cmax [7]: 2700 ng/g

The next lines start with the values.

remaining at 5 min, 1 µM [1]: 92.4%
Compound: CCOC(=O)c1coc2cc(Cl)c(Oc3ccncc3C(=O)N3CCN(C4CC4)c4ccccc43)cc12

remaining at 5 min, 1 µM [1]: 12.3%
Compound: CCCOC(=O)c1coc2ccc(Oc3ccncc3C(=O)N3CCN(C4CC4)c4ccccc43)cc12

remaining at 5 min, 1 µM [1]: 71%
Compound: COC(=O)c1coc2ccc(Oc3ccncc3C(=O)N3CCN(C4CC4)c4ccccc43)cc12
